In experiment [1] the test system is QD3-sbl (DNA, G4) TTAGGTGGGTAGGGTGGGCTAGTCATTTTGACTAGG
In words: ITC. To be noted: 120 mM K+; 20 mM potassium phosphate, 100 mM KCl, pH 7.0, 5% DMSO, 40 °C; high-affinity site, two-site fit.

Experiment [2] has as its system QD2-l (DNA, G4) GGTTGGCGCGAAGCATTCGCGGGTTGG
In words: NMR titration (imino protons, ROESY exchange). Conditions: K+ (10 mM potassium phosphate), pH 7.0, 20 °C, 0.5 mM DNA, slow exchange, intercalation at junction.

Experiment [3] has as its system QD3-sbl (DNA, G4) TTAGGTGGGTAGGGTGGGCTAGTCATTTTGACTAGG
Description: NMR solution structure. To be noted: K+ (10 mM potassium phosphate); pH 7.0, 30 °C; about 2% DMSO-d6; intercalation at quadruplex-duplex junction.

In the case of `CN(C)CCCNc1c2ccccc2nc2c1[nH]c1ccccc12`, in experiment [1], the Ka result was “(1.1±0.3) ⋅ 10^7 M^-1”. Besides, the binding entry in experiment [2] and in experiment [3] was “yes” throughout.
As for `C[n+]1c2ccccc2cc2[nH]c3ccccc3c21`, in experiment [1], the Ka entry was “(3.3±0.7) ⋅ 10^6 M^-1”.

These data come from paper PMC9303235 (2022).
